Data reported in US7709478B2, “Acylated 6,7,8,9-tetrahydro-5H-benzocycloheptenyl amines and their use as pharmaceutical agents” (sanofi-aventis Deutschland GmbH, priority 2001, dated 2010).

Molecular target: eNOS promoter
Test: Activation of eNOS transcription (eNOS promoter-luciferase reporter gene assay)
Format: cell-based, human
Conditions: 18 h incubation; for EC50: EC50 of transcription induction ratio vs compound concentration, determined graphically, human endothelial cell line stably transfected with eNOS promoter-luciferase construct; for TIR(max) / maximal fold induction: maximum transcription induction ratio (luciferase activity with compound / solvent alone), human endothelial cell line with eNOS promoter-luciferase construct; for maximal fold induction: read-out: TIR(max)
Experimental: Measurement of Activation of eNOS Transcription
Activation of eNOS transcription was measured as described in detail in Li et al. “Activation of protein kinase C alpha and/or epsilon enhances transcription of the human endothelial nitric oxide synthase gene”, Mol. Pharmacol. 1998; 53: 630-637.
Briefly, a 3.5 kB long fragment 5′ of the starting codon of the eNOS gene was cloned, sequenced and cloned in firefly luciferase expression plasmids to monitor activation of the eNOS promoter by reporter gene activity. A human endothelial cell line stable transfected and expressing this promoter-reporter construct was used for compound testing. Cells were incubated for 18 h with compounds.
All compounds were dissolved in sterile DMSO. A final concentration of 0.5% DMSO in complete medium was allowed. Induction of reporter gene expression in these cells was measured using a standard luciferase assay system (Promega, Cat. No E150) according to the manufacturer's instructions. Luciferase induction in cells incubated with compounds were compared to those incubated with solvent alone. The ratio of both activities (transcription induction ratio, TIR) was plotted as a function of compound concentration. Typically, TIR values started at low concentrations at a ratio of 1, indicating no compound effect, and extended up to a maximum TIR value TIR(max) which indicates the increase of the eNOS transcription. EC50 values of transcription induction ratios as a function of compound concentration were determined graphically.

Structure (SMILES) | EC50 | TIR(max) | maximal fold induction
CS(=O)(=O)Nc1cc(C(=O)NC2CCCc3ccccc3C2)ccc1Cl (stereo not drawn) [Compound 98, 4-CHLORO-3-METHANESULFONYLAMIINO-N-(6,7,8,9-TETRAHYDRO-5H-BENZOCYCLOHEPTEN-6-YL)-BENZAMIDE] | 574 nM | 2.6 | 
Cc1ccc(S(C)(=O)=O)cc1C(=O)NC1CCCc2ccccc2C1 (stereo not drawn) [Compound 140, 5-METHANESULFONYL-2-METHYL-N-(6,7,8,9-TETRAHYDRO-5H-BENZOCYCLOHEPTEN-6-YL)-BENZAMIDE] | 1300 nM |  | 3
CNc1nc(C)ccc1C(=O)NC1CCCc2ccccc2C1 (single isomer, unassigned) [Compound 123, 6-METHYL-2-METHYLAMINO-N-(6,7,8,9-TETRAHYDRO-5H-BENZOCYCLOHEPTEN-6-YL)-NICOTINAMIDE] | 260 nM |  | 2.9
Cc1ncccc1C(=O)NC1CCCc2ccccc2C1 (single isomer, unassigned) [Compound 26, 2-METHYL-N-(6,7,8,9-TETRAHYDRO-5H-BENZOCYCLOHEPTEN-6-YL)-NICOTINAMIDE] | 1800 nM |  | 3.1
O=C(NC1CCCc2ccccc2C1)c1cnc2c(c1)CCCC2 (stereo not drawn) [Compound 134, 5,6,7,8-TETRAHYDRO-QUINOLINE-3-CARBOXYLIC ACID (6,7,8,9-TETRAHYDRO-5H-BENZOCYCLOHEPTEN-6-YL)-AMIDE] | 3000 nM |  | 3.5
CN(C)c1ccc(C(=O)N[C@H]2CCCc3ccccc3C2)cn1 [Compound 117, (S)-6-DIMETHYLAMINO-N-(6,7,8,9-TETRAHYDRO-5H-BENZOCYCLOHEPTEN-6-YL)-NICOTINAMIDE] | 136 nM |  | 3
Cc1cc(C)c(C(=O)NC2CCCc3ccccc3C2)cn1 (single isomer, unassigned) [Compound 110, 4,6-DIMETHYL-N-(6,7,8,9-TETRAHYDRO-5H-BENZOCYCLOHEPTEN-6-YL)-NICOTINAMIDE] | 1000 nM |  | 3.1
Nc1ccnc(C(=O)NC2CCCc3ccccc3C2)c1 (stereo not drawn) [Compound 146, 4-AMINO-PYRIDINE-2-CARBOXYLIC ACID (6,7,8,9-TETRAHYDRO-5H-BENZOCYCLOHEPTEN-6-YL)-AMIDE] | 2400 nM |  | 2.9
O=C(NC1CCCc2ccccc2C1)c1nc(NCc2ccccc2)ccc1Cl (stereo not drawn) [143 B] | 28000 nM | 2.5 | 
Nc1c(C(=O)NC2CCCc3ccccc3C2)cnn1-c1ccccc1 (stereo not drawn) [Compound 61, 5-AMINO-1-PHENYL-1H-PYRAZOLE-4-CARBOXYLIC ACID (6,7,8,9-TETRAHYDRO-5H-BENZOCYCLOHEPTEN-6-YL)-AMIDE] | 2300 nM |  | 3.4
CNc1cc(C(=O)NC2CCCc3ccccc3C2)ccc1C (stereo not drawn) [Compound 135, 4-METHYL-3-METHYLAMINO-N-(6,7,8,9-TETRAHYDRO-5H-BENZOCYCLOHEPTEN-6-YL)-BENZAMIDE] | 589 nM |  | 3
Cc1ccc(C(=O)N[C@H]2CCCc3ccccc3C2)cc1N(C)C [Compound 131, (S)-3-DIMETHYLAMINO-4-METHYL-N-(6,7,8,9-TETRAHYDRO-5H-BENZOCYCLOHEPTEN-6-YL)-BENZAMIDE] | 440 nM |  | 3.1
Cc1cncc(C(=O)NC2CCCc3ccccc3C2)c1 (stereo not drawn) [Compound 91, 5-METHYL-N-(6,7,8,9-TETRAHYDRO-5H-BENZOCYCLOHEPTEN-6-YL)-NICOTINAMIDE] | 2300 nM |  | 2.9
O=C(NC1CCCc2ccccc2C1)c1ccc(N2CCOCC2)nc1 (stereo not drawn) [Compound 101, 6-MORPHOLIN-4-YL-N-(6,7,8,9-TETRAHYDRO-5H-BENZOCYCLOHEPTEN-6-YL)-NICOTINAMIDE] | 6000 nM |  | 3.1
Cc1nc(C)c(C(=O)NC2CCCc3ccccc3C2)o1 (stereo not drawn) [Compound 58, 2,4-DIMETHYL-OXAZOLE-5-CARBOXYLIC ACID (6,7,8,9-TETRAHYDRO-5H-BENZOCYCLOHEPTEN-6-YL)-AMIDE] | 19000 nM |  | 2.5
CS(=O)(=O)c1cccc(C(=O)NC2CCCc3ccccc3C2)c1 (stereo not drawn) [Compound 139, 3-METHANESULFONYL-N-(6,7,8,9-TETRAHYDRO-5H-BENZOCYCLOHEPTEN-6-YL)-BENZAMIDE] | 1900 nM |  | 3
CNc1nc(C)ccc1C(=O)NC1CCCc2ccccc2C1 (single isomer, unassigned) [Compound 124, 6-METHYL-2-METHYLAMINO-N-(6,7,8,9-TETRAHYDRO-5H-BENZOCYCLOHEPTEN-6-YL)-NICOTINAMIDE] | 6 nM | 2.9 | 
O=C(NC1CCCc2ccccc2C1)c1ccc2[nH]nnc2c1 (stereo not drawn) [Compound 13, 1H-BENZOTRIAZOLE-5-CARBOXYLIC ACID (6,7,8,9-TETRAHYDRO-5H-BENZOCYCLOHEPTEN-6-YL)-AMIDE] | 8800 nM |  | 2
O=C(NC1CCCc2ccccc2C1)c1cc(NCc2ccccc2)ccn1 (stereo not drawn) [Compound 142, 4-BENZYLAMINO-PYRIDINE-2-CARBOXYLIC ACID (6,7,8,9-TETRAHYDRO-5H-BENZOCYCLOHEPTEN-6-YL)-AMIDE] | 3000 nM |  | 2.5
CS(=O)(=O)Nc1cccnc1C(=O)NC1CCCc2ccccc2C1 (stereo not drawn) [Compound 145, 3-METHANESULFONYLAMINO-PYRIDINE-2-CARBOXYLIC ACID (6,7,8,9-TETRAHYDRO-5H-BENZOCYCLOHEPTEN-6-YL)-AMIDE] | 3800 nM |  | 1.6

The next lines start with results.

EC50 | TIR(max) | Structure (SMILES) | maximal fold induction
136 nM |  | O=C(NC1CCCc2ccccc2C1)c1cccc2[nH]ccc12 (stereo not drawn) [Compound 12, 1H—INDOLE-4-CARBOXYLIC ACID (6,7,8,9-TETRAHYDRO-5H-BENZOCYCLOHEPTEN-6-YL)-AMIDE] | 3
90 nM |  | Nc1nc(Cl)ccc1C(=O)NC1CCCc2ccccc2C1 (stereo not drawn) [Compound 137, 2-AMINO-6-CHLORO-N-(6,7,8,9-TETRAHYDRO-5H-BENZOCYCLOHEPTEN-6-YL)-NICOTINAMIDE] | 3
60 nM |  | Nc1nccnc1C(=O)NC1CCCc2ccccc2C1 (single isomer, unassigned) [Compound 45, 3-AMINO-PYRAZINE-2-CARBOXYLIC ACID (6,7,8,9-TETRAHYDRO-5H-BENZOCYCLOHEPTEN-6-YL)-AMIDE] | 2.9
49 nM |  | Cc1nc(C)c(C(=O)NC2CCCc3ccccc3C2)s1 (single isomer, unassigned) [Compound 28, 2,4-DIMETHYL-THIAZOLE-5-CARBOXYLIC ACID (6,7,8,9-TETRAHYDRO-5H-BENZOCYCLOHEPTEN-6-YL)-AMIDE] | 3.4
47 nM |  | Cc1cnc(C(=O)NC2CCCc3ccccc3C2)cn1 (single isomer, unassigned) [Compound 32, 5-METHYL-PYRAZINE-2-CARBOXYLIC ACID (6,7,8,9-TETRAHYDRO-5H-BENZOCYCLOHEPTEN-6-YL)-AMIDE] | 3
40 nM |  | Cc1cc(C(=O)NC2CCCc3ccccc3C2)c(C)[nH]1 (single isomer, unassigned; (+)) [Compound 49, (+)-2,5-DIMETHYL-1H-PYRROLE-3-CARBOXYLIC ACID (6,7,8,9-TETRAHYDRO-5H-BENZOCYCLOHEPTEN-6-YL)-AMIDE] | 3
19 nM |  | Cc1cnc(C(=O)NC2CCCc3ccccc3C2)c(N)n1 (stereo not drawn) [Compound 59, 3-AMINO-5-METHYL-PYRAZINE-2-CARBOXYLIC ACID (6,7,8,9-TETRAHYDRO-5H-BENZOCYCLOHEPTEN-6-YL)-AMIDE] | 3.2
